Source: patent US20240216421A1, “COMBINATION PRODUCT AND METHODS FOR PREVENTING THE EMERGENCE OF ANTIBIOTIC-RESISTANT BACTERIA UNDER ANTIBIOTIC TREATMENT” (DIOTHERIS, priority 2021, published 2024)
Entries after “also recorded” stand apart in the source; their conditions may differ.

Experiments:
Corynebacterium species [1] = conditions: natural resistance; mupirocin resistance breakpoint >2 μg/mL; cited from earlier work
S. aureus ATCC 29213 [2] = test: Co-culture on mupirocin-containing blood agar: growth of mupirocin-resistant mutant colonies; format: cell-based, Staphylococcus aureus; conditions: ≈10^9 CFU S. aureus on 0.2 μm filter, blood agar with 8 μg/mL mupirocin, no non-pathogenic microorganism
Protocol: (§1) A 5 McFarland suspension of Corynebacterium aurimucosum CIP 102616 was prepared as described in Example 2, and 300 μl of this suspension (≈10^7 CFU) were inoculated by swabbing on a 90 mm diameter blood agar plate containing 8 μg/mL of mupirocin; 300 μl of saline was inoculated as “negative control” (mupirocin-containing agar plate not inoculated with C. aurimucosum). Materials and methods were otherwise as described in Example 2, except that ≈10^9 CFU of S. aureus (ATCC 29213 or NCTC 12493) were spread out on the 0.2 μm filter placed on top of the agar plate.

S. aureus NCTC 12493 [3] = test: as above; format: cell-based, Staphylococcus aureus; conditions: ≈10^9 CFU S. aureus on 0.2 μm filter, blood agar with 8 μg/mL mupirocin, no non-pathogenic microorganism
Protocol: as §1

S. aureus NCTC 12493 [4] = test: Co-culture on fosfomycin-containing blood agar: growth of fosfomycin-resistant mutant colonies; format: cell-based, Staphylococcus aureus; conditions: ≈10^7 CFU S. aureus on 0.2 μm filter, blood agar with 50 μg/mL fosfomycin, no non-pathogenic microorganism
Protocol: (§2) A 5 McFarland suspension of Corynebacterium aurimucosum CIP 102616 was prepared from a 48 h-culture on Columbia 5% sheep blood agar at 35+/−2° C., and 300 μl of this suspension (≈10^7 CFU) were inoculated by swabbing on a 90 mm diameter blood agar plate containing 50 μg/mL of fosfomycin; 300 μl of saline was inoculated as “negative control” (fosfomycin-containing agar plate not inoculated with C. aurimucosum). A 10 McFarland suspension of S. aureus (ATCC 29213 or NCTC 12493) was prepared as described in Example 1, and 20 μl drops of this suspension (≈10^7 CFU) were spread out on a 47-mm diameter, 0.2 μm filter placed on top of the agar plate. Plates were incubated at 35+/−2° C., and the growth of fosfomycin-resistant mutants was determined as described in Example 1. Fosfomycin MIC values of bacteria forming fosfomycin-resistant colonies on “negative-control” plates were determined using the agar dilution method.
(§3) Serial 1/5 dilutions were prepared from a 100 McFarland suspension of C. aurimucosum and 250 μl of each bacterial suspension was inoculated by swabbing on a 90 mm diameter blood agar plate containing 50 μg/mL of fosfomycin, in order to obtain ≈10^9, ≈2×10^8, ≈4×10^7, ≈8×10^6, ≈1.6×10^6, ≈3.2×10^5, ≈6.4×10^4, ≈1.3×10^4, ≈2.5×10^3, ≈5×10^2, ≈10^2, and ≈20 CFU per plate. Materials and methods were otherwise as described in Example 2. […]

S. aureus ATCC 29213 [5] = test: as above; format: cell-based, Staphylococcus aureus; conditions: ≈10^7 CFU S. aureus on 0.2 μm filter, blood agar with 50 μg/mL fosfomycin, no non-pathogenic microorganism
Protocol: as §2, §3

[6] = test system: S. aureus fosfomycin-resistant mutants; test: Fosfomycin MIC of bacteria forming colonies on negative-control plates, agar dilution method; format: cell-based, Staphylococcus aureus
Protocol: as §2

Corynebacterium species [7] = conditions: natural resistance; fosfomycin resistance breakpoint >32 μg/mL; cited from earlier work
[8] = test system: C. aurimucosum Rif^R mutant; test: Rifampicin MIC, agar dilution method; format: cell-based; conditions: Corynebacterium aurimucosum, rifampicin resistance breakpoint MIC >16 μg/mL
Protocol: Spontaneous rifampicin-resistant colonies were obtained in one step by plating ≈10^9 CFU of C. aurimucosum CIP 102616 on blood agar plates supplemented with 20 μg/mL of rifampicin. Five clones were re-isolated on rifampicin-containing plates, and one of them was selected (C. aurimucosum CIP 102616 Rif^R mutant).

[9] = test system: S. epidermidis Rif^R mutant; test: Rifampicin MIC, agar dilution method; format: cell-based; conditions: Staphylococcus epidermidis, rifampicin resistance breakpoint MIC >16 μg/mL
[10] = test system: S. aureus rifampicin-resistant mutants; test: Rifampicin MIC of bacteria forming colonies on negative-control plates, agar dilution method; format: cell-based, Staphylococcus aureus
Protocol: A 5 McFarland suspension of CIP 102616 Rif^R was prepared from a 48 h-culture on Columbia 5% sheep blood agar at 35+/−2° C., and 300 μl of this suspension (≈10^7 CFU) was inoculated by swabbing on a 90 mm diameter blood agar plate containing 20 μg/mL of rifampicin; 300 μl of saline was inoculated as “negative control” (rifampicin-containing agar plate not inoculated with CIP 102616 Rif^R). Materials and methods were otherwise as described in Example 2, except that one 40 μl drop (≈10^7 CFU) was spread out on each filter. Rifampicin MIC values of bacteria forming rifampicin-resistant colonies on “negative-control” plates were determined using the agar dilution method.

C/C(=C\C(=O)OCCCCCCCCC(=O)O)C[C@@H]1OC[C@H](C[C@@H]2O[C@H]2[C@@H](C)[C@H](C)O)[C@@H](O)[C@H]1O [mupirocin]
mupirocin MIC values (Corynebacterium species [1]): > 16 mg/L
mupirocin-resistant mutant colonies, mupirocin alone (S. aureus ATCC 29213 [2]): Colonies of mupirocin-resistant mutants were detected
mupirocin-resistant mutant colonies, mupirocin alone (S. aureus NCTC 12493 [3]): Colonies of mupirocin-resistant mutants were detected

C[C@@H]1O[C@@H]1P(=O)(O)O [fosfomycin]
fosfomycin-resistant mutant colonies, fosfomycin alone (S. aureus NCTC 12493 [4]): colonies of fosfomycin-resistant mutants were detected; also recorded: Fosfomycin-resistant colonies developed
fosfomycin-resistant mutant colonies, fosfomycin alone (S. aureus ATCC 29213 [5]): colonies of fosfomycin-resistant mutants were detected; also recorded: Fosfomycin-resistant colonies developed
MIC ([6]; Staphylococcus aureus, read-out: fosfomycin MIC values of colonies on negative-control plates): ≥ 32 mg/L
share of fosfomycin-resistant mutant colonies with MIC of 64 μg/mL or higher ([6]; agar dilution method): ≈ 50%
share of fosfomycin-resistant mutant colonies with MIC of 256 μg/mL or higher ([6]; agar dilution method): ≈ 30%
fosfomycin MIC values (Corynebacterium species [7]): > 256 mg/L

CO[C@H]1/C=C/O[C@@]2(C)Oc3c(C)c(O)c4c(O)c(c(/C=N/N5CCN(C)CC5)c(O)c4c3C2=O)NC(=O)/C(C)=C\C=C\[C@H](C)[C@H](O)[C@@H](C)[C@@H](O)[C@@H](C)[C@H](OC(C)=O)[C@@H]1C [rifampicin]
MIC [8]: > 256 mg/L
MIC [9]: > 256 mg/L
MIC ([10]; Staphylococcus aureus, read-out: rifampicin MIC values of colonies on negative-control plates): ≥ 16 mg/L
share of rifampicin-resistant mutants with MIC of 64 μg/mL or higher ([10]; agar dilution method): 100%
share of rifampicin-resistant mutants with MIC of 128 μg/mL or higher ([10]; agar dilution method): ≈ 75%
share of rifampicin-resistant mutants with MIC of 256 μg/mL or higher ([10]; agar dilution method): ≈ 25%
